Assay results: patent publication US8785499B2 (priority 2009, dated 2014)
Values after ≈ are worked out from the molar mass of the structure shown.

How the values were obtained:
[1] = test system: E. coli K-12 BW25113 (ΔnadA); assay: microbe, parasite or virus in culture; format: cell-based, Escherichia coli; settings: for MIC50: Escherichia coli, BW25113, read-out: MIC50 E. coli
[2] = target: T1, ecNadD (Escherichia coli (strain K12), UniProt P0A752); assay: biochemical; settings: apparent value
[3] = test system: B. subtilis 168; assay: microbe, parasite or virus in culture; format: cell-based; settings: Bacillus subtilis, 168, read-out: MIC50 B. subt
[4] = test system: E. coli ΔnadA, nadD+ (overexpressing NadD); assay: Antibacterial assay: on-target versus off-target activity (NadD overexpression vs gapA control); format: cell-based, Escherichia coli; settings: E. coli overexpressing nadD vs gapA control strain
[5] = test system: B. anthracis sterne; assay: microbe, parasite or virus in culture; format: cell-based; settings: Bacillus anthracis, read-out: MIC50 B. anth
[6] = target: baNadD (Bacillus anthracis, UniProt C3L5T6); assay: biochemical; format: biochemical; settings: for inhibition at 50 µM: read-out: INHIBITION (%) B. anthracis
[7] = target: T1, ecNadD; assay: biochemical; format: biochemical

baNadD, sequence (C3L5T6 whole entry, looked up): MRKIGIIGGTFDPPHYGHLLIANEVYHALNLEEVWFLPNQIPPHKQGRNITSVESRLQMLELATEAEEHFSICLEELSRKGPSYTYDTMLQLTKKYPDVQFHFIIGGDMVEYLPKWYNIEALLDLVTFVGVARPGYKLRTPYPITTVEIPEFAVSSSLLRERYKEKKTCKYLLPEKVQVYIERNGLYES

Molecule `O=C(CCC(=O)Nc1cccc(Cl)c1)N/N=C/c1c2ccccc2cc2ccccc12` [01_02] has an MIC50 [1] of over 80 µM, a Ki ([2]; substrate ATP varied, 0.5 mM NaMN fixed) of 5 ± 1 µM and a Ki ([2]; substrate NaMN varied, 0.5 mM ATP fixed) of 8 ± 3 µM.
For `O=C(CCCC(=O)Nc1ccc(Br)cc1)N/N=C/c1c2ccccc2cc2ccccc12` [01_03], the MIC50 [3] was 10 µM (≈ 4.88 µg/mL), the “effect of NadD overexpression on antibacterial activity (on-target vs off-target)” value [4] was “partially or totally suppresses action” and the MIC50 [1] was over 80 µM. It also gave an MIC50 [5] of 15 µM (≈ 7.33 µg/mL).
In the case of `Nc1c(C(=O)Nc2cccc(F)c2)sc2nc(-c3cccs3)ccc12` [03_02], the MIC50 [3] is reported as 40 µM (≈ 14.8 µg/mL), the MIC50 [1] is reported as 160 µM (≈ 59.1 µg/mL) and the MIC50 [5] is reported as 80 µM (≈ 29.6 µg/mL). The inhibition at 50 µM [6] was 100%.
`Nc1c(C(=O)Nc2cc(Cl)ccc2Cl)sc2nc(-c3cccs3)ccc12` [03_05] showed an MIC50 [3] of 10 µM (≈ 4.2 µg/mL), an MIC50 [1] of 80 µM (≈ 33.6 µg/mL) and an MIC50 [5] of 10 µM (≈ 4.2 µg/mL).
`Nc1c(C(=O)Nc2ccc(Cl)cc2F)sc2nc(-c3cccs3)ccc12` [03_15] was tested, and the MIC50 [3] was 10 µM (≈ 4.04 µg/mL), the “effect of NadD overexpression on antibacterial activity (on-target vs off-target)” value [4] was “partially or totally suppresses action” and the MIC50 [1] was 160 µM (≈ 64.6 µg/mL). For the same molecule, the MIC50 [5] was 10 µM (≈ 4.04 µg/mL).
With `Nc1c(C(=O)Nc2cccc(Cl)c2)sc2nc(-c3ccncc3)ccc12` [03_17] the MIC50 [3] was over 160 µM, the MIC50 [1] was 80 µM (≈ 30.5 µg/mL) and the MIC50 [5] was over 160 µM. For the same molecule, the inhibition at 50 µM [6] was 64%.
For `Nc1c(C(=O)Nc2ccc(F)cc2Cl)sc2nc(-c3ccc(F)cc3)ccc12` [03_23], the MIC50 [3] was 80 µM (≈ 33.3 µg/mL), the “antibacterial activity against E. coli (qualitative)” value [1] was “relatively strong antibacterial activity” and the MIC50 [1] was 40 µM (≈ 16.6 µg/mL). The MIC50 [5] was 80 µM (≈ 33.3 µg/mL).
Molecule `COC(=O)c1ccc(N/C=C2\C(=O)Nc3ccccc32)cc1` [15_11] has an MIC50 [3] of under 50 µM and an MIC50 [1] of under 100 µM.
For `NNC(=O)CNC(=O)CNS(=O)(=O)c1ccc(Cl)cc1` [compound 250], the “[…]. coli” value [7] was 0% and the “[…]. anthracis” value [6] was 0%.
`CSc1nc2nc(N)nc(N)c2s1` [compound 251] was tested, and the “[…]. coli” value [7] was 0% and the “[…]. anthracis” value [6] was 0%.
For `O=[N+]([O-])c1ccc2[nH]c(CCc3nc4cc([N+](=O)[O-])ccc4[nH]3)nc2c1` [compound 252], the “[…]. coli” value [7] was 0% and the “[…]. anthracis” value [6] was 0%.
In the case of `Nc1nc(-c2cc([N+](=O)[O-])cc([N+](=O)[O-])c2)n[nH]1` [compound 253], the “[…]. coli” value [7] is reported as 0% and the “[…]. anthracis” value [6] is reported as 7%.
With `Nc1[nH][nH]c(=O)c1/N=N/c1ccccc1F` [compound 254] the “[…]. coli” value [7] was 0% and the “[…]. anthracis” value [6] was 0%.
In the case of `OCC#CCSc1nnc(-c2cccc(Br)c2)o1` [compound 255], the “[…]. coli” value [7] is reported as 0% and the “[…]. anthracis” value [6] is reported as 0%.
With `O=C(N/N=C/c1ccc(Br)cc1)c1[nH]ncc1Br` [compound 256] the “[…]. coli” value [7] was 0% and the “[…]. anthracis” value [6] was 0%.
With `COC(=O)c1ccc(NC(=O)CNc2ccc(C(=O)O)cc2)cc1` [compound 258] the “[…]. coli” value [7] was 0% and the “[…]. anthracis” value [6] was 0%.
With `Cc1ccc(C2C(C#N)=C(N)Oc3ncnc(O)c32)cc1` (stereo not shown) [compound 259] the “[…]. coli” value [7] was 0% and the “[…]. anthracis” value [6] was 0%.
With `O=C(NCCNc1ccc([N+](=O)[O-])cc1)c1ccccc1Br` [compound 260] the “[…]. coli” value [7] was 0% and the “[…]. anthracis” value [6] was 0%.
With `O=C(O)CC(NC(=O)OCc1ccccc1)c1ccccc1` (stereo not shown) [compound 261] the “[…]. coli” value [7] was 0% and the “[…]. anthracis” value [6] was 24%.
`Cc1nn(-c2ccc([N+](=O)[O-])cc2)c(Cl)c1S(=O)(=O)O` [compound 262] was tested, and the “[…]. coli” value [7] was 0% and the “[…]. anthracis” value [6] was 5%.
For `Nc1nnc(SCC(=O)Nc2ccc(Cl)c(Cl)c2)s1` [compound 263], the “[…]. coli” value [7] was 0% and the “[…]. anthracis” value [6] was 0%.
For `Cc1ccc([N+](=O)[O-])cc1NS(=O)(=O)c1ccc(F)cc1` [compound 264], the “[…]. coli” value [7] was 0% and the “[…]. anthracis” value [6] was 0%.
With `Cc1noc(C)c1S(=O)(=O)Nc1ccc(Br)cc1` [compound 265] the “[…]. coli” value [7] was 0% and the “[…]. anthracis” value [6] was 4%.
For `Cc1nnc(N/N=C/c2ccccc2C(=O)O)nc1O` [compound 267], the “[…]. coli” value [7] was 0% and the “[…]. anthracis” value [6] was 4%.
`NC(N)=NS(=O)(=O)c1ccc(NC(=O)c2cccc([N+](=O)[O-])c2)cc1` [compound 268] was tested, and the “[…]. coli” value [7] was 0% and the “[…]. anthracis” value [6] was 0%.
`NS(=O)(=O)c1cc(C(=O)OCC(=O)c2ccccc2)ccc1Cl` [compound 269] was tested, and the “[…]. coli” value [7] was 0% and the “[…]. anthracis” value [6] was 22%.
For `O=C(O)c1ccc(CSCc2ccccc2)o1` [compound 270], the “[…]. coli” value [7] was 0% and the “[…]. anthracis” value [6] was 21%.
`COC(=O)CSc1nnc(-c2ccc(Cl)cc2Cl)o1` [compound 274] was tested, and the “[…]. coli” value [7] was 0% and the “[…]. anthracis” value [6] was 0%.
`O=C(O)c1ccc(-c2ccc(C(=O)O)c(C(=O)O)c2)cc1C(=O)O` [compound 275] was tested, and the “[…]. coli” value [7] was 0% and the “[…]. anthracis” value [6] was 0%.
For `O=C(O)c1ccc2nc(-c3ccc(O)cc3)sc2c1` [compound 277], the “[…]. coli” value [7] was 0% and the “[…]. anthracis” value [6] was 0%.
`Nc1nnnn1/N=C/c1ccccc1` [compound 278] was tested, and the “[…]. coli” value [7] was 0% and the “[…]. anthracis” value [6] was 0%.
In the case of `O=C(Nc1ccc(Cl)cn1)c1cccnc1` [compound 279], the “[…]. coli” value [7] is reported as 0% and the “[…]. anthracis” value [6] is reported as 0%.
For `O=C(Cn1cnc2ccccc2c1=O)Nc1cccc(C(=O)O)c1` [compound 280], the “[…]. coli” value [7] was 0% and the “[…]. anthracis” value [6] was 0%.
With `CC(=O)c1ccc(NS(=O)(=O)c2ccc(N)cc2)cc1` [compound 283] the “[…]. coli” value [7] was 0% and the “[…]. anthracis” value [6] was 0%.
With `O=S(=O)(Nc1nc2ccccc2s1)c1ccc(Cl)s1` [compound 284] the “[…]. coli” value [7] was 0% and the “[…]. anthracis” value [6] was 7%.
`Cn1c(SCC(N)=O)nnc1-c1ccc(Br)cc1` [compound 286] was tested, and the “[…]. coli” value [7] was 0% and the “[…]. anthracis” value [6] was 0%.
With `Nc1c(C(=O)Nc2ccc(F)c(F)c2)sc2nc(-c3ccncc3)ccc12` [compound 287] the “[…]. coli” value [7] was 0% and the “[…]. anthracis” value [6] was 0%.
In the case of `Nc1nc(-c2ccc(Cl)c([N+](=O)[O-])c2)n[nH]1` [compound 288], the “[…]. coli” value [7] is reported as 0% and the “[…]. anthracis” value [6] is reported as 0%.
`O=C(CNS(=O)(=O)c1ccc(Br)s1)NCCC1=CCCCC1` [compound 289] was tested, and the “[…]. coli” value [7] was 0% and the “[…]. anthracis” value [6] was 4%.
`CC(=O)O/C(=C\c1cn(C(C)=O)c2ccccc12)C(=O)O` [compound 291] was tested, and the “[…]. coli” value [7] was 0% and the “[…]. anthracis” value [6] was 0%.
With `O=S(=O)(N/N=C/c1cccc(OC2CSC2)c1)c1ccccc1` [compound 292] the “[…]. coli” value [7] was 0% and the “[…]. anthracis” value [6] was 0%.
In the case of `O=C(O)CSc1cccc(SCC(=O)O)c1` [compound 293], the “[…]. coli” value [7] is reported as 0% and the “[…]. anthracis” value [6] is reported as 5%.
With `O=C(NCc1ccccn1)c1ccc(Cl)cc1Cl` [compound 294] the “[…]. coli” value [7] was 0% and the “[…]. anthracis” value [6] was 0%.
For `COc1ccc(-c2noc(COc3ccc(Cl)cc3Cl)n2)cc1` [compound 295], the “[…]. coli” value [7] was 0% and the “[…]. anthracis” value [6] was 11%.
For `O=S(=O)(Nc1ccc(Cl)cc1)c1ccc(Cl)s1` [compound 297], the “[…]. coli” value [7] was 0% and the “[…]. anthracis” value [6] was 0%.
In the case of `CCn1c(CNc2ccc(F)cc2)nnc1SCC(N)=O` [compound 298], the “[…]. coli” value [7] is reported as 0% and the “[…]. anthracis” value [6] is reported as 0%.
With `COc1ccccc1OCc1nc(-c2ccc(Cl)cc2Cl)no1` [compound 299] the “[…]. coli” value [7] was 0% and the “[…]. anthracis” value [6] was 1%.
For `CC(=O)NS(=O)(=O)c1ccc(/N=C2\C(=O)Nc3ccccc32)cc1` [compound 300], the “[…]. coli” value [7] was 0% and the “[…]. anthracis” value [6] was 0%.
For `C=CCNC(=O)c1cc(-c2ccc(Br)cc2)on1` [compound 301], the “[…]. coli” value [7] was 0% and the “[…]. anthracis” value [6] was 0%.
`O=C(CCN1C(=O)c2ccccc2C1=O)NCc1ccncc1` [compound 302] was tested, and the “[…]. coli” value [7] was 0% and the “[…]. anthracis” value [6] was 0%.
With `Clc1ccc(CNc2nc[nH]n2)cc1` [compound 305] the “[…]. coli” value [7] was 0% and the “[…]. anthracis” value [6] was 0%.
In the case of `CSc1cccc(NS(=O)(=O)c2ccc(Cl)cc2)c1` [compound 306], the “[…]. coli” value [7] is reported as 0% and the “[…]. anthracis” value [6] is reported as 0%.
With `O=S(=O)(NCCc1ccccc1)c1ccc(Br)s1` [compound 307] the “[…]. coli” value [7] was 0% and the “[…]. anthracis” value [6] was 0%.
